Data on three molecules can be found in patent US20230073301A1, “TISSUE DOSING FOR INTRALUMINAL LOCAL DRUG DELIVERY” (ISOLA THERAPEUTICS, INC., priority 2020, published 2023).

Where “and” joins values, the source holds several entries; their conditions need not be identical. Equal values may be shown once. Read-outs that look alike come from different tables or passages of the source.

Data set [1] can be described thus: GMX002 lung tissue PTX concentration after local lung lavage. In kind it is in vivo, porcine. The note with it: for concentration at 20 min: pig.
Protocol: A blood sample was also collected at 0, 5, 10, 15, and 20 minutes.
(§2) Spectra were compared to the validated protocol and standard curve generated for the study.
The acute animal (19P1241) and the chronic animal (19P0884) were sent to necropsy for gross pathology and tissue harvesting. Three full thickness lung tissue sample from each of the cranial (cran) caudal (caud) and middle (mid) lobes of the untreated left lung and three lung tissue samples from each of the cranial (cran) caudal (caud) and middle (mid) lobes of the treated right lung were taken from the 20 minute animal, frozen and sent for analytical analysis.
The format of data set [2] is in vivo, porcine. As to the method:
(§1) For GMX001, both animals underwent surgery to place two (2) CVL catheters, 1 for infusion and 1 for plasma collection. The animals were allowed to recover and stabilize.
Animal 19P0837 had 2 mL of blood collected at baseline and after the 3 hours infusion. […] Blood was processed and sent to Analytical for processing. […] The animal survived to the scheduled term with signs of discomfort as per technician's observations. The animal had blisters on the chest at day 3, prior to term.
Gross examination of the lungs, colon, jejunum, regional lymph nodes, and collateral structures was conducted. […] Lungs were also slightly heavy. […] Small intestine appeared bloated diffusely. The lumen of darkened jejunum section appeared mottled dark purple to black. There were no other abnormal findings noted at necropsy.

A short description of data set [3]: GMX001 lung and lung lymph node PTX concentration after systemic infusion.
Description: (§3) The necropsy for tissue collection after the last plasma sample focused on drug concentration and included: lung, lung lymph nodes, colon, and the colon lymph nodes.
as §2
(§4) The acute animal (19P0837) and the chronic animal (19P0997) were sent to necropsy for gross pathology and tissue harvesting. Three full thickness lung tissue samples from each of the cranial (cran) caudal (caud) and middle (mid) lobes were frozen and sent for analytical analysis.
A short description of data set [4]: Animal experiment, first pig: systemic paclitaxel, plasma and lung tissue concentration.
Protocol: (§5) A first pig was given 4.28 mg/kg/hr of paclitaxel systemically, i.e., intravenously over three hours. […] Next, the lung tissue in a second pig was saturated with paclitaxel via the airways by an endoluminal approach. […] The drug solution dwelled in the airways of the second animal for approximately 20 minutes to ensure saturation of the lung tissue before being evacuated from the airways.
Data set [5] in a line: GMX001 plasma PTX concentration after systemic infusion (LC/MS). In kind it is in vivo, porcine. Conditions: pig; for concentration at 3 h: systemic infusion 175 mg/m^2 over 3 hours; for Cmax: iv, 175 mg/m2, systemic. As to the method:
The systemic studies were denoted GMX001 and local administration studies GMX002.
For GMX001 (systemic), anatomy permitting, 2 animals were used and divided into a 3 hour animal and a 72 hour animal.
as §1

A short description of data set [6]: Animal experiment, second pig: endoluminal airway paclitaxel, lung tissue concentration. Conditions: soaking solution 75.8 μM in airways, approximately 20 minutes dwell.
Protocol: as §5
Data set [7] is described as follows: in vivo. The note with it: pig, intravenous.
Description: as §3, §2, §4
A short description of data set [8]: GMX002 plasma PTX concentration after local lung lavage. The format is in vivo, porcine. As to the method:
For GMX002 (local), anatomy permitting, 2 animals were divided into a 20 minute animal and a 72 hour animal.
The necropsy for tissue collection was completed to obtain information on the drug concentration within the lung and lung lymph nodes.
The chronic (72 hour) animal in the study was recovered with blood plasma samples collected immediately after infusion, followed by additional blood plasma collection occurring at 5, 15, and 30 minutes following infusion. More blood plasma was collected after 1, 3, 5, 9, 24, and 72 hours. The necropsy for tissue collection took place 72 hours after infusion with drug concentration measurements in the lung and lung lymph nodes. Histopathology was done on the lung.
Animal 19P0844 was infused with 700 mL. Animal 19P1241 was infused with approximately 900 mL.
Animal 19P1241 had 2 mL of blood collected at baseline and at 5, 10, 15 and 20 minutes of infusion. Plasma was collected for processing. Animal 19P0884 had 2 mL of blood collected at baseline, 5, 10, 15 and 20 minutes of infusion. Following infusion, blood was collected at 5, 15, 30 minutes with more blood being collected after 1, 3, 5, 9, 24, and 72 hours.

A short description of data set [9]: GMX001 colon tissue PTX concentration after systemic infusion. The note with it: 3 hour animal 19P0837; for concentration at 3 h: pig, intravenous, 4.28 mg/kg/hr, Colon PTX concentration. In kind it is in vivo, porcine. From the text:
Three samples each were taken from the rectum, transverse (tran) colon, ascending (asc) colon, descending (desc) colon and colon lymph nodes (LN).

The conditions of data set [10]: humans, cited from earlier work.
The nature of data set [11]: Porcine local levofloxacin: pathology and side effects. The format is in vivo.
Protocol: (§6) Porcine studies were performed similarly to as described in Example A but using levofloxacin as the drug agent. Only local administration to the lung was performed.
Data set [12] is described as follows: in vivo. Conditions: pig.
Protocol: as §6
For data set [13] the following is noted: humans; systemic administration; cited from earlier work.
The conditions of data set [14]: pig, in vivo.
Protocol: as §6
Setting [15] is: local lavage of right lung, 20 min, animal 19P1241.
Where [16] appears, read: systemic, 3 hour animal 19P0837.
The mark [17] stands for this setting: systemic, 72 hour animal 19P0997.
[18] abbreviates: lung tissue (RT mid lung), 175 mg/m^2.

In the case of `CC(=O)O[C@H]1C(=O)[C@@]2(C)[C@H]([C@H](OC(=O)c3ccccc3)[C@]3(O)C[C@H](OC(=O)[C@H](O)[C@@H](NC(=O)c4ccccc4)c4ccccc4)C(C)=C1C3(C)C)[C@]1(OC(C)=O)CO[C@@H]1C[C@@H]2O` [PTX, 5β,20-Epoxy-1,2α,4,7β,10β,13α-hexahydroxytax-11-en-9-one 4,10-diacetate 2-benzoate 13-ester with (2R,3S)-N-benzoyl-3-phenylisoserine], the “Lung PTX concentration, RT caud lung” value in data set [1] (setting [15]) is 35300 ng/g tissue and 29800 ng/g tissue; in data set [3] (setting [16]), 28800 ng/g and 31600 ng/g; in data set [3] (setting [17]), 2070 ng/g. Moreover, the “Lung PTX concentration, RT cran lung” value in [1] (setting [15]) was 32100 ng/g tissue and 38400 ng/g tissue; in data set [3] (setting [16]), 27000 ng/g and 27300 ng/g; in data set [3] (setting [17]), 2660 ng/g. Besides, the “Lung PTX concentration, RT Mid Lung” value in data set [1] (local lavage of right lung, 20 min, animal 19P1241, middle lobe believed blocked) is 760 ng/g tissue and 557 ng/g tissue. The “lower drug concentration with local vs systemic administration for same lung tissue uptake” value in data set [1] (local vs systemic) came to 37 fold. The concentration at 20 min in data set [1] (lung tissue, other: local lung lavage (right lung, via catheter), 32000 ng/mL (lavage solution), PTX in lung tissue achieved, local administration (GMX002)) was greater than 30000 ng/g; in data set [1] (lung tissue, other: local lung lavage (right lung, via catheter), 32000 ng/mL (lavage solution), PTX per g of lung tissue, local, acute animal) it was roughly 32000 ng/g; in data set [1] (lung tissue, other: local lung lavage (right lung, via catheter), 32000 ng/mL (lavage solution), highest PTX level in lung tissue, local administration), 38400 ng/g; in data set [1] (lung, caudal lobe of the treated right lung, 32000 ng/mL, Lung PTX concentration, RT Caud Lung, local lavage of right lung, 20 min, animal 19P1241) it was 34600 ng/g; in data set [1] (lung, middle lobe of the treated right lung, 32000 ng/mL, Lung PTX concentration, RT Mid Lung, local lavage of right lung, 20 min, animal 19P1241, middle lobe believed blocked) it was 749 ng/g. The early mortality entry (GMX002) is on record as “no early mortality” and the early mortality result in data set [2] (GMX001) is reported as “no early mortality”. In addition, the Clinical observations entry (pig, in vivo) was “GMX002: Unremarkable”. Further, the Physical examination result (pig, in vivo) was “GMX002: Unremarkable”. Further, the “adverse events / clinical observations” value (pig, in vivo) is “did not have any adverse events”. Further, the “distress or complications during administration” value (pig, in vivo) is given as “did not show signs of distress or complications”. In addition, the gross necropsy findings entry (pig, in vivo) is given as “no other abnormal findings noted at necropsy that could be attributed to the treatment”. In addition, the terminal clinical pathology result (pig, in vivo) is given as “clinical markers comparable to baseline”; the terminal clinical pathology entry in data set [2] (pig, in vivo) is “decrease in WBC, neutrophils, lymphocytes and platelet counts”. Also, in data set [2] (pig, in vivo), the distress with infusion entry is listed as “showed distress”. In [3] (3 hour animal 19P0837 vs 72 hour animal 19P0997), the “decrease of lung PTX concentration 72 hours following systemic administration” value is “approximately 3.5 fold”. In addition, the “PTX in lung tissue achieved” value in data set [3] (systemic administration (GMX001)) is recorded as “greater than 30000 ng/g”. Also, in data set [3] (systemic drug delivery at 3 hours), the “lung tissue concentration range” value is given as 12,500-41,200 ng/g. Also, the “Lung PTX concentration, RT mid lung” value in data set [3] (setting [16]) is 41200 ng/g and 28300 ng/g; in data set [3] (setting [17]), 2590 ng/g. Moreover, the “Lung PTX concentration, lung LN” value in [3] (systemic, 72 hour animal 19P0997, lung lymph node samples) came to 4240 ng/g. Also, in data set [4] (4.28 mg/kg/hr intravenously over three hours), the “maximum plasma concentration MPC” value amounted to 78.58 µM. For the same molecule, the “average lung tissue concentration TC” value in [4] (samples immediately after systemic delivery) is 37.9 µM; in [6], 40.4 µM. For the same molecule, the concentration at 3 h in data set [5] (intravenous, 175 mg/m^2, Blood PTX concentration, animal 19P0837, 3 hr) stood at 57 µg/mL; in data set [5] (intravenous, 175 mg/m^2, Blood PTX concentration, animal 19P0997, 3 hr) it was 67.1 µg/mL; in “in vivo [7]” (lung tissue (RT caud lung), 175 mg/m^2), 42900 ng/g; in the data set “in vivo [7]” (lung tissue (RT cran lung), 175 mg/m^2), 32200 ng/g; in the data set “in vivo [7]” (setting [18]), 32000 ng/g; in data set [9] (ascending colon, asc colon), 10800 ng/g. Moreover, the concentration at 3 h in data set [9] (colon lymph nodes, colon LN) was found to be 19600 ng/g; in data set [9] (descending colon, desc colon) it was 12500 ng/g; in [9] (rectum), 14400 ng/g; in data set [9] (transverse colon, tran colon) it was 13500 ng/g. In [5] (intravenous, 175 mg/m^2, Blood PTX concentration, systemic infusion, animal 19P0997, 4 hr), the concentration at 4 h amounted to 43.1 µg/mL. In addition, the concentration at 6 h in data set [5] (intravenous, 175 mg/m^2, Blood PTX concentration, systemic infusion, animal 19P0997, 6 hr) came out at 28.5 µg/mL. Besides, the concentration at 8 h in data set [5] (intravenous, 175 mg/m^2, Blood PTX concentration, systemic infusion, animal 19P0997, 8 hr) came to 27.1 µg/mL. The molecule further showed a concentration at 12 h in [5] (intravenous, 175 mg/m^2, Blood PTX concentration, systemic infusion, animal 19P0997, 12 hr) of 20.5 µg/mL. The molecule further came in with a concentration at 24 h in data set [5] (intravenous, 175 mg/m^2, Blood PTX concentration, systemic infusion, animal 19P0997, 24 hr) of 9.11 µg/mL. Also, the concentration at 72 h in data set [5] (intravenous, 175 mg/m^2, Blood PTX concentration, systemic infusion, animal 19P0997, 72 hr) is 0.713 µg/mL; in the data set “in vivo [7]” (lung lymph node, 175 mg/m^2), 4340 ng/g; in “in vivo [7]” (setting [18]) it was 3560 ng/g; in the data set “in vivo [7]” (lung, right caudal lobe, 4.28 mg/kg/hr), 2720 ng/g. Further, the Cmax in data set [5] (3 hour animal) turned out to be 57 µg/mL; in data set [5] (72 hour animal), 67.1 µg/mL; in data set [8] (pig, plasma, other: local lung lavage (right lung, via catheter), 32000 ng/mL (lavage solution), local, 5 minutes post local infusion, read-out: maximum concentration in plasma (Cmax)), 0.0276 µg/mL. Further, the “plasma Cmax local / systemic” value in [8] ([…]57000 ng/mL) stood at 0.048%; in [8] ([…]67100 ng/mL), 0.041%. For the same molecule, in data set [8] (local vs systemic), the “plasma Cmax for local administration as % of plasma Cmax with systemic administration” value was “less than 0.05%”. Further, in data set [8] (local vs systemic), the “plasma Cmax lower with local than with systemic administration” value is given as “more than 2000 fold”. Moreover, the “time of peak plasma concentration after end of lung infusion” value in [8] (local, 32,000 ng/mL, after the lung was cleared of the drug) amounted to 5 min. For the same molecule, the “time of peak concentration of PTX in plasma after infusion initiation” value in [8] (local, 72 hour animal 19P0844) came out at 25. Also, the “Colon PTX concentration, asc colon” value in data set [9] was 16900 ng/g and 13200 ng/g. Also, in data set [9], the “Colon PTX concentration, colon LN” value was 12700 ng/g and 17700 ng/g. Besides, the “Colon PTX concentration, desc colon” value in [9] is 12700 ng/g and 12800 ng/g. The “Colon PTX concentration, rectum” value in data set [9] was 14100 ng/g and 16000 ng/g. The “Colon PTX concentration, tran colon” value in [9] was 14600 ng/g and 13200 ng/g.

For the molecule `N.N.[Cl][Pt][Cl]` [cisplatin], the Cmax in data set [10] (systemic administration, read-out: Typical plasma Cmax) was 30 µM. For the same molecule, in data set [10] (systemic delivery), the “typical lung tissue Cmax” value is 170 µM.

Consider `C[C@H]1COc2c(N3CCN(C)CC3)c(F)cc3c(=O)c(C(=O)O)cn1c23` [levofloxacin], for which, in data set [11] (following local delivery), the “lung damage at pathology” value is “No lung damage was observed”. In addition, the side effects entry in [11] (local delivery) is on record as “no significant side effects”. The Cmax in the data set “in vivo [12]” turned out to be 0.291 µg/mL. Moreover, in data set [13], the “Typical plasma Cmax” value was 5.6 µg/mL. In [14], this molecule gave a Sputum levels of 32 µg/mL.
